Data set [1] has as its target GABA Cl- channel (GABA-gated). As to the kind of experiment: Radioligand binding, [35S]TBPS. The note with it: reference compound run for the assay. Set-up: species or system rat.
The next data set concerns IKACh. Nature of the data set: In vivo ECG, carbachol-induced heart rate slowing in anesthetized mice. The following applies: 300 μl of 200 μM i.p. How it is done: We tested the in vivo effects of BP-G1 versus those of BP-G1(SR) on heart rate in anesthetized adult mice (Fig. 8). ECG was continuously recorded. Panel A is the ECG showing that after carbachol (300 μl of 200 μM) was administered, i.p. (red mark), the heart decelerated, with a visible RR prolongation. About 10 min after carbachol injection, BP-G1 was delivered via the jugular vein (40 μl of 240 μM) (green mark). Within 5 min, there was a reversal of carbachol’s effects on the heart rate. Panel B is a control mouse showing heart rate slowing after carbachol administration (red mark).
Mice were anesthetized (1.5% isofluorane), and a 1.2 French octapolar catheter (Millar) with a drug delivery port was placed transvenously, through the jugular vein, into the right atrium. Continuous ECG was recorded using the Animal Bio Amp and PowerLab 4/35 Advanced Instruments apparatus. […] Saline control at the same volume was performed. Results are averages ±SD.

The next data set deals with Purinergic Channels P2Y. As to the kind of experiment: Radioligand binding, [35S]dATPaS. Set-up: species or system rat. The note with it: reference compound run for the assay.
The target of data set [2] is Benzodiazepine BDZ Central. Nature of the data set: Radioligand binding, [3H]flunitrazepam. Set-up: species or system rat. The following applies: read-out: Reference: IC50.
For a further data set, the target named is T1, Chemokines CCR1 (Homo sapiens, UniProt P32246).
T1 construct: expressed in transfected cells; host or cells: HEK-293 cells
T1 sequence (P32246 1-355): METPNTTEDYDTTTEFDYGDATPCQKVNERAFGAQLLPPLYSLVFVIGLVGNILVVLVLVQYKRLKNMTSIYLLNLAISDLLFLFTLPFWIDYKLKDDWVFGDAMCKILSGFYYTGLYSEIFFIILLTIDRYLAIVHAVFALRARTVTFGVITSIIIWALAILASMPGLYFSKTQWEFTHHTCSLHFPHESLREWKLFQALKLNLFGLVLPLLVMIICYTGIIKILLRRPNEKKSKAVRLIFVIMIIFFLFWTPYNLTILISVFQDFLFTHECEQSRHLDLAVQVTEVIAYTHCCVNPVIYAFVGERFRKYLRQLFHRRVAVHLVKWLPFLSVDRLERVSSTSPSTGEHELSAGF
As to the kind of experiment: Radioligand binding, [125I]MIP-1a. The following applies: reference compound run for the assay.

Another data set deals with TNF-α. As to the kind of experiment: Radioligand binding, [125I]TNF-a, U-937 cells. The following applies: reference compound run for the assay.
A further data set addresses T2, Muscarinic M5 (Homo sapiens, UniProt P08912).
T2 construct: expressed in transfected cells; host or cells: CHO cells
Nature of the data set: Radioligand binding, [3H]4-DAMP. The note with it: reference compound run for the assay.

Another data set addresses T3, Kir3.1/4 channel (Homo sapiens, UniProt P48544+P48549).
T3 sequence (P48549 1-501): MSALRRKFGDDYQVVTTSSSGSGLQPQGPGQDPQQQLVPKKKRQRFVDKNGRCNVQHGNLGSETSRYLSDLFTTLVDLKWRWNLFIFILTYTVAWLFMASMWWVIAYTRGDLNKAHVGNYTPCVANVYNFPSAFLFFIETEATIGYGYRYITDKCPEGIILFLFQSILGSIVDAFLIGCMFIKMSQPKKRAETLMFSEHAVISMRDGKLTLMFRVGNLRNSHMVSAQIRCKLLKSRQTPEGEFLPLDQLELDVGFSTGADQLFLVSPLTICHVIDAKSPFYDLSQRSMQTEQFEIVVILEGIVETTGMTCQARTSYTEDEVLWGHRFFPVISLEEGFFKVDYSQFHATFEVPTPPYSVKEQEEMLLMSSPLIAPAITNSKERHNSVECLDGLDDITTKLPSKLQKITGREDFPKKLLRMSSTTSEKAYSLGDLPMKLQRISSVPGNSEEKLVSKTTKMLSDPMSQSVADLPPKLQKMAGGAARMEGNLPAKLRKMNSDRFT
T3 sequence (P48544 1-419): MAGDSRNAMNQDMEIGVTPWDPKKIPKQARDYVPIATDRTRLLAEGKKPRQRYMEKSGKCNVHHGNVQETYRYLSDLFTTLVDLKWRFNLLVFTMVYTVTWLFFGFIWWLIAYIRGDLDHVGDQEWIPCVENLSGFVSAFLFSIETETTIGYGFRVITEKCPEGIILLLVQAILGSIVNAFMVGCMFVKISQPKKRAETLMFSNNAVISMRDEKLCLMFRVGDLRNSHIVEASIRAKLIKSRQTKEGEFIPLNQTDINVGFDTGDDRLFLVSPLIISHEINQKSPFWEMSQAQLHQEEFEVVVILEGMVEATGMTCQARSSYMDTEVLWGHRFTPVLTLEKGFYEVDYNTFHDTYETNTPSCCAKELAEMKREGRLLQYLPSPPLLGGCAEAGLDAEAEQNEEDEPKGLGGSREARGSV
Nature of the data set: TEVC in Xenopus oocytes, Kir3.1/4. Type of data set: cell-based. More on the design: expressed in transfected cells; host or cells: Xenopus laevis oocytes (cRNA injection). The following applies: 1 μM, TEVC. How it is done: X. laevis oocytes were isolated and microinjected as previously described ([6]). Human Kir3.1, mouse Kir3.2, and human Kir3.4 DNA constructs were used for electrophysiology experiments. All cRNA constructs were injected in the amount of 2 ng per oocyte. Injected oocytes were incubated for 2 to 3 days at 18 °C to allow for expression. Whole-cell oocyte currents were then measured using a GeneClamp 500 amplifier (Axon Instruments). Microelectrodes had resistances of 0.5 to 1 megohm using a 3M KCl solution in 1.4% agarose. Oocytes were perfused with a low K^+ (LK) solution ND96 (2 mM KCl, 96 mM NaCl, 1 mM MgCl2, 1.8 mM CaCl2, 5 mM HEPES-Na) to establish a baseline for the recordings. Basal current was measured in a high potassium (HK) solution ND96K (96 mM KCl, 10 mM HEPES-K, 1 mM MgCl2, 1.8 mM CaCl2). To block the current, the oocyte chamber was perfused with 4 mM BaCl2 in ND96K. Only the Barium-sensitive current was used for statistical analysis. To measure the inhibitory activity of the channels, 1 μM BP-G1 in ND96K (HK) was used. Typically, oocytes were held at 0 mV (EK) and the current was monitored constantly using a ramp protocol with a command potential from −80 to +80 mV. Current amplitude was measured at the end of a 1 s sweep. All currents were analyzed when they reached steady state. Error bars in the figures represent SD (N > 4).

The target in a further data set is T4, 5-HT2B (Homo sapiens, UniProt P41595).
T4 construct: expressed in transfected cells; host or cells: CHO cells
T4 sequence (P41595 whole entry): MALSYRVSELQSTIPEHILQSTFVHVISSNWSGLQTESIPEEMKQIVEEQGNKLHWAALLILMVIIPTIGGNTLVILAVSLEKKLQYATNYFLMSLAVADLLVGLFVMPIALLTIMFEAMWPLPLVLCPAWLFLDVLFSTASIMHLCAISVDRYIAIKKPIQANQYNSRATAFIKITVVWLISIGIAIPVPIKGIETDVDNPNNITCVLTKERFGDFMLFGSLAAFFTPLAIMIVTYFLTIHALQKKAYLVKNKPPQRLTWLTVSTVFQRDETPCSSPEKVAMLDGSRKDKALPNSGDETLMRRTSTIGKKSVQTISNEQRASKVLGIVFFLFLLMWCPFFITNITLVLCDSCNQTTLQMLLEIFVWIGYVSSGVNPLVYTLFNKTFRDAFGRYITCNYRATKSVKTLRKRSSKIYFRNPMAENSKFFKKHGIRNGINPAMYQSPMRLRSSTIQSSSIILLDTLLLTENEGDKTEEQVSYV
Nature of the data set: Radioligand binding, [125I](±)DOI. The note with it: reference compound run for the assay.

The next data set relates to Somatostatin sst. Nature of the data set: Radioligand binding, [125I]Tyr11-somatostatin-14, AtT-20 cells. The note with it: reference compound run for the assay.
In the next data set the target is Purinergic Channels P2X. Nature of the data set: Radioligand binding, [3H]a,b-MeATP, rat urinary bladder. The following applies: reference compound run for the assay.
The next data set concerns the target Bombesin BB. Nature of the data set: Radioligand binding, [125I][Tyr4]bombesin. More on the design: species or system rat. The note with it: reference compound run for the assay.
A further data set addresses SKCa. Nature of the data set: Radioligand binding, [125I]apamin. Set-up: species or system rat. The note with it: reference compound run for the assay.
For the next data set, the target named is Adrenergic α2. As to the kind of experiment: Radioligand binding, [3H]prazosin. Set-up: species or system rat. The following applies: reference compound run for the assay.
Another data set has as its target T5, 5-HT2C (Homo sapiens, UniProt P28335).
T5 construct: expressed in transfected cells; host or cells: HEK-293 cells
As to the kind of experiment: Radioligand binding, [3H]mesulergine. The note with it: read-out: Reference: IC50.

A further data set concerns the target T6, Kir2.1 (Homo sapiens, UniProt P63252).
T6 construct: host or cells: HEK293
The note with it: published NTC-801 data ref 27; cited from earlier work.

The target of another data set is Kv1.5 (Homo sapiens, UniProt P22460). The note with it: published NTC-801 data ref 27; cited from earlier work.
A further data set concerns the target Nav1.5 (Homo sapiens, UniProt Q14524). The note with it: read-out: Published IC50, Nav1.5 (1Hz); published NTC-801 data ref 27; cited from earlier work.
In the next data set the test system is Kv7.1/KCNE1. The note with it: published NTC-801 data ref 27; cited from earlier work.
In the next data set the test system is hERG. The note with it: read-out: Published IC50, hERG; published NTC-801 data ref 27; cited from earlier work. A general note: Block of hERG is tested as a sign of cardiac risk.
The subject of another data set is Kir3.1/3.4. More on the design: method as in earlier work. The following applies: oocyte; published NTC-801 data ref 27; cited from earlier work.
A further data set has as its target Kv4.3 (Homo sapiens, UniProt Q9UK17). The note with it: published NTC-801 data ref 27; cited from earlier work.
In the next data set the test system is HCN4. More on the design: method as in earlier work. The following applies: published NTC-801 data ref 27; cited from earlier work.
Another data set concerns GP IKACh. Set-up: method as in earlier work. The following applies: published NTC-801 data ref 27; cited from earlier work.
Another data set has as its system Cav1.2. The note with it: read-out: Published IC50, Cav1.2; ICa,L; published NTC-801 data ref 27; cited from earlier work.
A further data set relates to Kir3.1/3.2. Set-up: method as in earlier work. The note with it: published NTC-801 data ref 27; cited from earlier work.
The target of the next data set is T7, Kir6.2/SUR2A (Homo sapiens, UniProt O60706+Q14654).
T7 construct: Andrew Tinker, UCL; host or cells: HEK293
T7 sequence (Q14654 whole entry): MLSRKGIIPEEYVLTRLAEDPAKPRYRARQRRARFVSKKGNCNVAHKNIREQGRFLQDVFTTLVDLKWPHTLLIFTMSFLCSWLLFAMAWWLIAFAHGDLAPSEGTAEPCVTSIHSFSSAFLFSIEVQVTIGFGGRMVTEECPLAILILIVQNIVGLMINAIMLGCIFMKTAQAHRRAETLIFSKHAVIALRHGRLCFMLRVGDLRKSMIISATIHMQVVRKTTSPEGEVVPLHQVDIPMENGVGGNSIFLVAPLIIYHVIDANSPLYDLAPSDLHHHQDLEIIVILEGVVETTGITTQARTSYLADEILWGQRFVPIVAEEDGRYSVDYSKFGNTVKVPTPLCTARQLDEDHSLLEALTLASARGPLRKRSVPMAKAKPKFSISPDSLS
T7 sequence (O60706 whole entry): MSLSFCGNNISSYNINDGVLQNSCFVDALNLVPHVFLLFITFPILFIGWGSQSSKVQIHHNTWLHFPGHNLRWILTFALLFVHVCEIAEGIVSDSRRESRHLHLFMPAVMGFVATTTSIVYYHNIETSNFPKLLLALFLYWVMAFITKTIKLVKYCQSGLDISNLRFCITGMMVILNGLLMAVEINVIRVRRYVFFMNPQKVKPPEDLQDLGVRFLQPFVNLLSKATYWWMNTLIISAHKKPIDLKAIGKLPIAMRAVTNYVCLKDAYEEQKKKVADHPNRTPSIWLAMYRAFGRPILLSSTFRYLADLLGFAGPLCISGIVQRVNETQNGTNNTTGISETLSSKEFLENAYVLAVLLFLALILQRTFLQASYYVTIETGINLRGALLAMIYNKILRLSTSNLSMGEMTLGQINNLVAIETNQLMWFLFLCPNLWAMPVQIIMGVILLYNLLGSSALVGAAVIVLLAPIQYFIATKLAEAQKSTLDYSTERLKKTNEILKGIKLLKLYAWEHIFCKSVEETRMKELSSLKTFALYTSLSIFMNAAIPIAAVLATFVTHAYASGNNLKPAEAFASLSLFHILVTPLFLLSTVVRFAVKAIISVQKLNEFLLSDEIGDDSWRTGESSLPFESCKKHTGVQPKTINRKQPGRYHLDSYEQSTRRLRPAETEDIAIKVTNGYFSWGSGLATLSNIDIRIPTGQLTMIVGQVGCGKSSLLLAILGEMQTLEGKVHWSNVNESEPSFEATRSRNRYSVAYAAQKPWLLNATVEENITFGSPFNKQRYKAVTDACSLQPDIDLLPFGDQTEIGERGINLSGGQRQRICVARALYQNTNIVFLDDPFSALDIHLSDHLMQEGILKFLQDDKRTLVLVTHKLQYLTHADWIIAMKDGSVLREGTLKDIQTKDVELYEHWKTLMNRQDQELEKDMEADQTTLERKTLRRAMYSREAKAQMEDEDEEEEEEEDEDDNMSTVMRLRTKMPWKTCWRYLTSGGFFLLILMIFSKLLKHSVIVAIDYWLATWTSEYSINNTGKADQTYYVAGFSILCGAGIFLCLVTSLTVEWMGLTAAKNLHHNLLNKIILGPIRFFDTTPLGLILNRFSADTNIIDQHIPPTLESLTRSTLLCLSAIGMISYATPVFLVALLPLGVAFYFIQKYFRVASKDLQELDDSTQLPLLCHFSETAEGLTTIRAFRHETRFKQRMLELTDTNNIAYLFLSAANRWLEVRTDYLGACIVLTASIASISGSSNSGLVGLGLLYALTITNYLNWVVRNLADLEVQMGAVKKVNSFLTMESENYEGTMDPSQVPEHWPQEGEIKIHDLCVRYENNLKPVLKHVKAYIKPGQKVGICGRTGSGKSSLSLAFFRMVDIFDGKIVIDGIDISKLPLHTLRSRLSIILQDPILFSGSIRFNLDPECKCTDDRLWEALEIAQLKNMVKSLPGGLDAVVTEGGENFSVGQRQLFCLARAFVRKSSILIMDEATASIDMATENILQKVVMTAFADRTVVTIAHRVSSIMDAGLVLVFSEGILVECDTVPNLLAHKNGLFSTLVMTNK
The note with it: IKATP; published NTC-801 data ref 27; cited from earlier work.

“Also recorded” adds a separate entry of the source. Ends that are not written are not given here.

For orientation: IC50 means the point on the concentration scale where inhibition reaches its midpoint.

Chain of Nav1.5 (Q14524 whole entry): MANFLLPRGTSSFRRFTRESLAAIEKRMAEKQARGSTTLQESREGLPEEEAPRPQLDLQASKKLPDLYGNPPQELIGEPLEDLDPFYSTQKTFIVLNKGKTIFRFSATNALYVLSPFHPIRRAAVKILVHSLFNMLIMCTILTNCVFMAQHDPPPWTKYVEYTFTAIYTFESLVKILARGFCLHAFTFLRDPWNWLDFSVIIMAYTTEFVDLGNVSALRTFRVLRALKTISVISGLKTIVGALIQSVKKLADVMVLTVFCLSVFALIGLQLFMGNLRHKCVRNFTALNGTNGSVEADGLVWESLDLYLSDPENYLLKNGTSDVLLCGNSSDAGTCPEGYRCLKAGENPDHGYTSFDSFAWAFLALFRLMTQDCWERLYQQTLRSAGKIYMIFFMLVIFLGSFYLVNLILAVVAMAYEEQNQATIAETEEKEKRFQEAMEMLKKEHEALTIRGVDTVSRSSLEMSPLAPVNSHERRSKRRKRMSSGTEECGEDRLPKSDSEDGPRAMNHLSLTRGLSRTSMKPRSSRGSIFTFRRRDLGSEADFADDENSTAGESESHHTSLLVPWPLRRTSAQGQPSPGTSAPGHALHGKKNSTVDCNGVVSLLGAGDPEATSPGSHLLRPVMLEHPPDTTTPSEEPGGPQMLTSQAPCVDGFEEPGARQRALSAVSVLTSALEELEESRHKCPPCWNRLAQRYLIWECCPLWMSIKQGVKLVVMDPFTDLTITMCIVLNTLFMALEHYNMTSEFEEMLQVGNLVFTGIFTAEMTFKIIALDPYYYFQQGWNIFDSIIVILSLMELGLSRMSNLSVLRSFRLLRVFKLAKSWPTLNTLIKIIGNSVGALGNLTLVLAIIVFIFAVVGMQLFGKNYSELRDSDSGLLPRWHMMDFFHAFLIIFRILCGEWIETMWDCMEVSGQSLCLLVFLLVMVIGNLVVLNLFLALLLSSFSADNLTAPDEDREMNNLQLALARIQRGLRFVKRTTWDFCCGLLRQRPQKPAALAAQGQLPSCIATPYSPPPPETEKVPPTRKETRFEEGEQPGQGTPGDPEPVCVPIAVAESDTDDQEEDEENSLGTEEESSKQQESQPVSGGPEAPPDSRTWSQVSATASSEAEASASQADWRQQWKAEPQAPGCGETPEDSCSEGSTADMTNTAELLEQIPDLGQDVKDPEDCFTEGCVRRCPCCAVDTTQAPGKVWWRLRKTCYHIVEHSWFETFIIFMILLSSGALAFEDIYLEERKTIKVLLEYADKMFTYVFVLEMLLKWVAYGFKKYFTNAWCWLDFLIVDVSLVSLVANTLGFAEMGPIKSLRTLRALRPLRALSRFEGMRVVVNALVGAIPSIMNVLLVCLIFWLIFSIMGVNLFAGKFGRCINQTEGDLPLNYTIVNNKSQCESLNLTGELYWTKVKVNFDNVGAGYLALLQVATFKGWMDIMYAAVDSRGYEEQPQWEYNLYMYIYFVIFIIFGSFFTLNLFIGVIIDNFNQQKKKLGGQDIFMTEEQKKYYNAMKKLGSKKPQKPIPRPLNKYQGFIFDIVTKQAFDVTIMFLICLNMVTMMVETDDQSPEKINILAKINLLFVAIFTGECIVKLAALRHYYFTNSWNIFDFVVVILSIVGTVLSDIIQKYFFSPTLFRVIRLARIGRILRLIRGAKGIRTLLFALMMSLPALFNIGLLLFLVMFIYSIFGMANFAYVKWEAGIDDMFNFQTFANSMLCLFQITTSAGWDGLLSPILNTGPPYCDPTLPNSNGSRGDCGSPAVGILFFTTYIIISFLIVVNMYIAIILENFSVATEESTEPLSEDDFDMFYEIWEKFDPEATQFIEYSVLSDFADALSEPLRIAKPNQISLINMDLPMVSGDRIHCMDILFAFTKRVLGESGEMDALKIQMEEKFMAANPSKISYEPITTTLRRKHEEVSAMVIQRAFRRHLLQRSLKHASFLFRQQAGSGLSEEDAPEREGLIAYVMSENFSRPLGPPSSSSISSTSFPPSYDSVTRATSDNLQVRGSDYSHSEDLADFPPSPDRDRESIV
T5 sequence (P28335 33-458): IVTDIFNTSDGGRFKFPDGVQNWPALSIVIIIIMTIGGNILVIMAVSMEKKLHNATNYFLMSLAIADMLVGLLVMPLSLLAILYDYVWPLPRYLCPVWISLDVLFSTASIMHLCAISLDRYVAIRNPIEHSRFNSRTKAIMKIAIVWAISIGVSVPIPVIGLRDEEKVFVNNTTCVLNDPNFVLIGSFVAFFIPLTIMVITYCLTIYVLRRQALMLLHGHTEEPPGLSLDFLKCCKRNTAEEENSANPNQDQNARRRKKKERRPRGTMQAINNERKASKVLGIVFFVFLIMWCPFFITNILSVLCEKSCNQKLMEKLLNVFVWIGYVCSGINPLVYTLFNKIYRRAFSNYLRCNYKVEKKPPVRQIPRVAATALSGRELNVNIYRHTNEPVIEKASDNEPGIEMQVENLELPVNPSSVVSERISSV

In data set [1], `C=C(C)[C@@H]1[C@H]2OC(=O)[C@@H]1[C@]1(O)C[C@H]3O[C@]34C(=O)O[C@H]2[C@]14C` [picrotoxinin, reference compound] had a concentration for half-maximal inhibition (IC50) of 150 nM. Turning to `C[N+](C)(C)CCOC(N)=O` [Carbachol, carbachol, reference compound], the “RR interval after carbachol” value with IKACh (BP-G1 group, baseline 155.2 ± 16.3 ms) came to 474.2 ± 60.7 ms; in the data set with IKACh (saline control group, baseline 168.6 ± 10.7 ms), 476.7 ± 77.8 ms. At Purinergic Channels P2Y, `Nc1ncnc2c1ncn2[C@H]1C[C@H](O)[C@@H](COP(O)(=S)OP(=O)(O)OP(=O)(O)O)O1` (stereo partly drawn) [dATPaS] displayed a half-inhibitory concentration (IC50) of 20 nM. Consider `CN1C(=O)CN=C(c2ccccc2)c2cc(Cl)ccc21` [diazepam], for which the IC50 in data set [2] turned out to be 8.6 nM. In turn, MIP-1a: assay reference compound returned an IC50 in the data set with Chemokines CCR1 of 0.04 nM. As for TNF-a, the half-maximal inhibitory concentration (IC50) in the data set on TNF-α is 0.1 nM. On Muscarinic M5, `C[N+]1(C)CCC(OC(=O)C(c2ccccc2)c2ccccc2)CC1` [4-DAMP] came in with a half-inhibitory concentration (IC50) of 0.52 nM. On to `Cc1ccnc2cc3c(cc12)OC(C)(C)C=C3` [GAT1572, 2,2,9-trimethyl-2H-pyrano[2,3-g]quinoline], for which the “inhibitory activity on Kir3.1/4 channel” value on Kir3.1/4 channel was “not active”. The compound `COc1cc(CC(C)N)c(OC)cc1I` (racemic) [(±)DOI] displayed an IC50 at 5-HT2B of 5 nM. somatostatin-14: the IC50 in the data set with Somatostatin sst stood at 0.2 nM. Consider `Cc1cc(CO)nc2cc3c(cc12)OC(C)(C)C=C3` [GAT1573, (2,2,9-trimethyl-2H-pyrano[2,3-g]quinolin-7-yl)methanol], for which the “inhibitory activity on Kir3.1/4 channel” value against Kir3.1/4 channel is “not active”. On to `Nc1ncnc2c1ncn2[C@@H]1O[C@H](COP(=O)(O)CP(=O)(O)OP(=O)(O)O)[C@@H](O)[C@H]1O` [a,b-MeATP], for which the 50% inhibitory concentration (IC50) on Purinergic Channels P2X amounted to 3.5 nM. The compound bombesin came in with an IC50 on Bombesin BB of 0.205 nM. As for “apamin (CNCKAPETALCARRCQQH; ends and bridges not checked; cysteine pairing not given here; UniProt P01500 28-45, looked up)”, the IC50 at SKCa was determined as 0.0091 nM. In the case of `COc1cc2nc(N3CCN(C(=O)c4ccco4)CC3)nc(N)c2cc1OC` [prazosin], on Adrenergic α2, the IC50 worked out at 0.182 nM. `Cc1ccnc2cc3c(cc12)OC(C)(C)[C@H](O)[C@H]3NCCc1ccccc1` [GAT1588, (3R,4S)-2,2,9-trimethyl-4-(phenethylamino)-3,4-dihydro-2H-pyrano[2,3-g]quinolin-3-ol]: the “inhibitory activity on Kir3.1/4 channel” value at Kir3.1/4 channel is listed as “retained comparable inhibitory activity to BP-G1; also recorded: inhibited the channel with comparable activity to BP-G1”. Turning to `COc1cc(OC)c(C(=O)CCCCN2CCC3(CC2)NC(=O)NC3=O)cc1NS(=O)(=O)c1ccc(C(F)(F)F)cc1` [RS 102221], the IC50 at 5-HT2C stood at 3.1 nM. In the case of `Cc1cc(CO)nc2cc3c(cc12)OC(C)(C)[C@H](O)[C@H]3NCCc1ccccc1` [NTC-801], the half-inhibitory concentration (IC50) at Kir2.1 was over 30000 nM; on Kv1.5, over 30000 nM; on Nav1.5, 8300 nM; with Kv7.1/KCNE1, over 30000 nM; in the data set with hERG it was over 30000 nM; in the data set on Kir3.1/3.4 it was 0.7 nM. Besides, the IC50 on Kv4.3 is over 11600 nM; in the data set with HCN4, over 30000 nM; in the data set with GP IKACh, 7 nM; in the data set with Cav1.2 it was over 30000 nM; with Kir3.1/3.2, 34 nM; on Kir6.2/SUR2A, 7800 nM.

Source of the values: article PMC8086025, “A benzopyran with antiarrhythmic activity is an inhibitor of Kir3.1-containing potassium channels” (The Journal of Biological Chemistry, 2021).
